Test results taken from patent US10172915B2, “Methods and compositions for activation of sirtuins with Annexin A1 peptides” (Duke University, priority 2013, dated 2019).
No end group written: not given here.

Assays:
[1] = test system: ventricular contractile function ex vivo; conditions: cited from earlier work
[2] = test system: rat coronary ligation models; conditions: cited from earlier work
[3] = test system: adult rat ventricular cardiomyocytes with SIRT3 siRNA; assay: siRNA knock-down of SIRT3 in ARVCs with simulated IR, rescue; assay type: cell-based; conditions: simulated ischemia-reperfusion
Description: ARVC siRNA transfection: after 24 h of incubation with AW Medium (Cellutron Cat #M-8034) without antibiotics, ARVCs were transfected with a specific SIRT3-siRNA or a scrambled RNA (scrRNA) as control, according to manufacturer's protocol (Santa Cruz). Transfection efficiency was estimated by Western blotting of the target protein (A). ARVC, adult rat ventricular cardiomyocytes; OGD, oxygen-glucose deprivation; scrR, scrambled RNA; siR, SIRT3 siRNA; SP, ANXA1sp; V, vehicle control; scrR+V, scramble RNA with vehicle control; scrR+SP, scramble RNA with ANXA1sp; siR+V, SIRT3 siRNA with vehicle control; siR+SP, SIRT3 siRNA with ANXA1sp; cTnI, cardiac troponin I measured in supernatant. Results presented as mean±SD (n=3). GAPDH used as loading control.

[4] = test system: protein lysine acetylation; assay: Protein lysine acetylation in left ventricular myocardial lysates of DHCA rats; assay type: in vivo, rat; conditions: 60 min DHCA, 6 h reperfusion
Description: (§1) FIG. 15. Increased SIRT3 activity with ANXA1sp treatment is associated with reduced protein lysine acetylation in left ventricular myocardial lysates from rats following 60 min DHCA and 6 h reperfusion (panel A). This included deacetylation of MnSOD (known to increase its reactive oxygen species scavenging activity). Acetylated proteins were immunoprecipitated with anti-acetyl lysine antibody, and deacetylated MnSOD levels were assessed in the supernatant via Western blot (panel B). […] Results presented as mean±SD (n=5/group), *P<0.05. anti-Ac-K, acetylated lysine antibody; IP, immuno-precipitation; WB, Western blot; ROS, reactive oxygen species; MnSOD, manganese superoxide dismutase.
(§2) Separate groups of animals underwent 60 minutes of DHCA (18° C.) with a similar treatment design, with animals randomly assigned to sham, CPB/DHCA (Vehicle), DHCA+ANXA1sp (ANXA1sp), or DHCA+scrambled peptide (scrPEP). All rats were subjected to 60 minutes DHCA at 18° C. and received either vehicle (1% DMSO saline), ANXA1sp (total 2 mg/kg), or scrPEP (total 2 mg/kg) iv 1 h before CPB and 1 h after reperfusion (FIG. 10C). Sham operated animals were only cannulated/without CPB/DHCA as baseline control. At 3, 6, and 24 h of post-perfusion, heart and serum samples were harvested. Blood samples were collected and stored at −80° C. until analysis. […]

SIRT3 [5] = assay: Myocardial SIRT3 in DHCA rats (Western blot, confocal microscopy); assay type: in vivo, rat; conditions: for Expression (44-kDa) and activation (28-kDa) of myocardial SIRT3: 60 min DHCA at 18° C., 2 mg/kg iv, 3 hours post-perfusion, p<0.05 vs vehicle; for SIRT3 level and mitochondrial localization in rat myocardium (confocal): 60 min DHCA, 3 h reperfusion
Description: (§3) Proteins were separated by electrophoresis on SDS-PAGE and then transferred onto PVDF-Plus membrane (Millipore). After being blocked with 5% milk, the immunoblots were probed with appropriate antibodies to SIRT3 (Cell Signaling or Abcam), MPP (Santa Cruz), MnSOD, P-AMPK, COXIV, GAPDH (Cell Signaling), and caspase-3 (Cell Signaling, MA) overnight at 4° C. followed by incubation with the corresponding secondary antibodies at room temperature for 1 h. The blots were visualized with the SuperSignal West Dura Extended Duration Substrate (Thermo Scientific) by a gel imaging system (Alpha Innotech).
(§4) Separate groups of animals underwent 60 minutes of DHCA (18° C.) with a similar treatment design, with animals randomly assigned to sham, CPB/DHCA (Vehicle), DHCA+ANXA1sp (ANXA1sp), or DHCA+scrambled peptide (scrPEP). All rats were subjected to 60 minutes DHCA at 18° C. and received either vehicle (1% DMSO saline), ANXA1sp (total 2 mg/kg), or scrPEP (total 2 mg/kg) iv 1 h before CPB and 1 h after reperfusion (FIG. 10C). Sham operated animals were only cannulated/without CPB/DHCA as baseline control. At 3, 6, and 24 h of post-perfusion, heart and serum samples were harvested. Blood samples were collected and stored at −80° C. until analysis. A small portion of heart tissue from each animal was immediately fixed in 10% buffered formalin, embedded in paraffin, and sectioned for immunostaining, confocal colocalization microscopy, and apoptotic TUNEL staining. Myocardial whole-tissue lysates were obtained at the end of each experiment according to the manufacturer's protocol (Affymetrix). The remaining heart tissues were stored at −80° C. FIG. 10 depicts a diagram of the rat surgical model and schematics of the experimental protocols.
Confocal studies were performed as described previously. Paraffin sections were deparaffinized using xylene and descending grades of ethanol, pretreated with microwave irradiation (350 W, for 5 min in 200 ml of 0.1M Citrate buffer, pH 6.0). Tissue sections were incubated with rabbit monoclonal IgG anti-SIRT3 (Cell Signaling) and mouse monoclonal IgG anti-COXIV (Cell Signaling) at 4° C. overnight. After washing, tissue sections were incubated with Alexa555 conjugated donkey anti-mouse IgG and Alexa488 conjugated goat anti-rabbit IgG (Molecular Probes) for 1 h at RT. Images were acquired with a confocal microscope (Zeiss Invert 510 Microscope). The control experiments were performed using mouse IgG and/or rabbit IgG.

[6] = test system: rats, deep hypothermic circulatory arrest; assay: Rat model of deep hypothermic circulatory arrest (DHCA), myocardial injury; assay type: in vivo; conditions: 60 min DHCA
Description: as §4
The following endpoints were assessed: plasma cTnI and heart-type fatty acid binding protein (HFABP, ELISA, Life Diagnosis); myocardial apoptosis as levels of cleaved caspase-3 (Western blot) and TUNEL assays (Roche); and echocardiographic left ventricular function. Myocardial levels of TNFα, IL-6, and myeloperoxidase (MPO) were analyzed by ELISA. SIRT3 and cytochrome c were measured in isolated mitochondria by Western blot.
Blood samples were collected from each rat at 24 h after CPB/DHCA. […] Cellular levels of ATP were measured by ELISA (Abeam).
TUNEL assay was performed using the In Situ Cell Death Detection Kit (Roche Molecular Biochemicals) according to manufacturer's protocol. […] The reaction was terminated with stop solution and fluorescent apoptotic signal was detected using a fluorescence microscope (Zeiss LSM 510 inverted confocal). Ten fields of each tissue section were randomly chosen and a total of 50 cells per field were counted. […]

NF-κB p65 subunit = assay: NF-κB p65 acetylation and NF-κB activity in DHCA rats; assay type: in vivo, rat
Description: FIG. 18. Increased SIRT1 expression with ANXA1sp treatment is also associated with reduced acetylation of NF-κB p65 subunit (at lysine 310 residue) following DHCA in rats. Rats underwent 1 hour DHCA at 18° C. and received either vehicle or ANXA1sp (2 mg/kg, iv) followed by 6 hours reperfusion. Levels of acetylated NF-κB p65 were determined in left ventricular myocardium tissue lysates by Western blot. Results presented as mean±SD (n=4), *p<0.001. DHCA, deep hypothermic circulatory arrest; P65-Ac(K310), lysine 310 acetylated NF-κB p65 subunit. GAPDH used as loading control.
as §4

[7] = test system: rats rendered acutely hyperglycemic, cardioplegic arrest; assay: Rat CPB/CA model in acutely hyperglycemic rats; assay type: in vivo; conditions: blood glucose>300 mg/dl, Dextrose 25%, 5 gm/kg
Description: Because of the known effects of hyperglycemia to blunt cardioprotective mechanisms, the effects of ANXA1sp were further tested in rats rendered acutely hyperglycemic (blood glucose>300 mg/dl) through perioperative administration of Dextrose (25%, 5 gm/kg). […] Physiological parameters during the conduct of CPB/CA were similar between treatment groups.

myocardial levels of ATP = assay: Myocardial ATP levels in DHCA rats; assay type: in vivo, rat; conditions: 60 min DHCA, 3 h reperfusion
Description: (§5) FIG. 16. […] Results presented as mean±SD (n=5), *P<0.05 and ^#P<0.01. P-AMPK, phosphorylated AMPK. GAPDH used as loading control.
(§6) Blood samples were collected from each rat at 24 h after CPB/DHCA. Samples were immediately cooled to 4° C. and centrifuged at 3,000 rpm for 10 minutes at 4° C. Serum was collected and stored at −80° C. until assay. Whole cell lysate from heart tissues was obtained according to manufacturer's instruction (Panomics) and used for measurement of pro-inflammatory cytokines IL-6, TNFα and MPO by an ELISA method (Thermo Scientific). Cellular levels of ATP were measured by ELISA (Abeam).

SIRT3 [8] = assay: SIRT3 expression in ARVCs after OGD/reoxygenation (Western blot, confocal microscopy); assay type: cell-based, rat
Description: (§7) After 24 h incubation, ARVCs were pre-treated with known concentrations of ANXA1sp or scrPEP in growth medium for 1 h, and subjected to 2 h oxygen-glucose-deprivation (OGD: DMEM no glucose, 85% N2/10% H2/5% CO2) in a OGD station chamber/Anaerobic System (Farma Scientific), followed by reoxygenation with 10 μM ANXA1sp or scrPEP in growth medium for 3, 6, and 24 h in a 37° C. and 5% CO2 growth chamber, respectively.
as §3
Confocal studies were performed as described previously. MitoTraker Deep Red FM (Invitrogen) was added into culture medium to make the final concentration of 0.4 μM and incubated at 37° C. for 45 min. After being washed, fixed, permeabilized, and blocked, rabbit monoclonal IgG anti-SIRT3 (Abcam) was added at 4° C. for overnight. Cells were subsequently incubated with Alexa-488 conjugated goat anti-rabbit IgG (Molecular Probes) for 1 h at RT. Images were acquired with a confocal microscope (Zeiss Invert 510 Microscope).

[9] = test system: AMP-activated protein kinase (AMPK); assay: AMPK phosphorylation in ARVCs after OGD/reoxygenation; assay type: cell-based, rat; conditions: 2 h OGD, 3 h reoxygenation
Description: as §7, §3

[10] = test system: AMP-activated protein kinase (AMPK); assay: AMPK phosphorylation in myocardium of DHCA rats; assay type: in vivo, rat; conditions: 60 min DHCA, 3 h reperfusion
Description: as §5, §4

[11] = test system: mitochondrial protein lysine-acetylation; assay: Mitochondrial protein lysine acetylation in ARVCs after OGD/reoxygenation; assay type: cell-based, rat; conditions: ARVCs following OGD/reoxygenation
Description: as §7

cellular levels of ATP = assay: Cellular ATP levels in ARVCs after OGD/reoxygenation; assay type: cell-based, rat
Description: as §7, §6

reactive oxygen species = assay: Reactive oxygen species in hearts of DHCA rats (ELISA); assay type: in vivo, rat; conditions: 60 min DHCA, 6 h reperfusion
Description: as §1, §2

Ac-Ala-Met-Val-Ser-Glu-Phe-Leu-Lys-Gln-Ala-Trp-Phe-Ile-Glu-Asn-Glu-Glu-Gln-Glu-Tyr-Val-Gln-Tyr-Val-Lys (Ac-AMVSEFLKQAWFIENEEQEYVQYVK) [Ac2-26, 25mer peptide derived from annexin 1, commercially available]
Post-ischemic recovery of ventricular contractile function [1]: improves post-ischemic recovery of ventricular contractile function
Neutrophil dependent myocardial necrosis [2]: inhibits neutrophil dependent myocardial necrosis

Ac-Gln-Ala-Trp [ANXA1sp]
Rescue of increased cell necrosis and apoptosis after SIRT3 knock down [3]: partially rescued
Protein acetylation in myocardial tissue homogenates [4]: significant reduction of protein acetylation
Expression (44-kDa) and activation (28-kDa) of myocardial SIRT3 (SIRT3 [5]): significantly restored expression and activation of SIRT3
SIRT3 level and mitochondrial localization in rat myocardium (confocal) (SIRT3 [5]): robustly increased SIRT3 and was predominantly localized in the mitochondria
Cleaved caspase-3 activity by Western blot [6]: significantly decreased
Myocardial apoptosis by TUNEL staining ([6]; 24 h post-reperfusion): significantly decreased myocardial apoptosis
Serum cTnI (ELISA) ([6]; multiple reperfusion time points): significantly decreased
Acetylation of NF-κB p65 (K310) (NF-κB p65 subunit; 1 hour DHCA, 2 mg/kg iv, 6 hours reperfusion): attenuated acetylation of NF-kB p65
NF-κB transcriptional activity (NF-κB p65 subunit; DHCA rats): suppressed NF-κB transcriptional activity
NF-κB-mediated gene expression of TNFα (NF-κB p65 subunit; DHCA rats): significantly down-regulated
Hyperglycemic exacerbation of myocardial injury and inflammation [7]: significantly attenuated
Myocardial levels of ATP (myocardial levels of ATP): increased myocardial levels of ATP
SIRT3 full-length and short form proteins in cell lysates (SIRT3 [8]; ARVCs after OGD/reoxygenation, Western blot): significantly increased SIRT3 in both full-length and short form proteins
SIRT3 expression in isolated mitochondria (SIRT3 [8]; ARVCs subjected to OGD): increased SIRT3 expression in isolated mitochondria
SIRT3 in mitochondria by confocal microscopy (SIRT3 [8]; cultured ARVCs, 10 μM, 2 h OGD, 3 h reoxygenation): significantly increased in mitochondria
Phosphorylation of AMPK [9]: increased phosphorylation of AMPK
Phosphorylation of AMPK (P-AMPK) in left ventricular myocardial lysates [10]: increased phosphorylation of AMP-activated protein kinase
Protein acetylation [11]: significant reduction in protein acetylation
ATP concentrations (cellular levels of ATP): increased ATP concentrations
Cellular levels of reactive oxygen species in hearts (reactive oxygen species): decreased cellular levels of reactive oxygen species

Ac-W^10Q^11A^12 [scrPEP, reference compound]
Expression (44-kDa) and activation (28-kDa) of myocardial SIRT3 (SIRT3 [5]): had no such effects
SIRT3 level and mitochondrial localization in rat myocardium (confocal) (SIRT3 [5]): has no such effects
